Experimental data from patent US8822449B2, “Substituted aminoindanes and analogs thereof, and the pharmaceutical use thereof” (Sanofi, priority 2008, dated 2014).

Molecular target: T1, sodium-proton exchanger of subtype 3 (NHE3) (Homo sapiens, UniProt P48764)
T1 construct: expressed in transfected cells
T1 sequence (P48764 26-834): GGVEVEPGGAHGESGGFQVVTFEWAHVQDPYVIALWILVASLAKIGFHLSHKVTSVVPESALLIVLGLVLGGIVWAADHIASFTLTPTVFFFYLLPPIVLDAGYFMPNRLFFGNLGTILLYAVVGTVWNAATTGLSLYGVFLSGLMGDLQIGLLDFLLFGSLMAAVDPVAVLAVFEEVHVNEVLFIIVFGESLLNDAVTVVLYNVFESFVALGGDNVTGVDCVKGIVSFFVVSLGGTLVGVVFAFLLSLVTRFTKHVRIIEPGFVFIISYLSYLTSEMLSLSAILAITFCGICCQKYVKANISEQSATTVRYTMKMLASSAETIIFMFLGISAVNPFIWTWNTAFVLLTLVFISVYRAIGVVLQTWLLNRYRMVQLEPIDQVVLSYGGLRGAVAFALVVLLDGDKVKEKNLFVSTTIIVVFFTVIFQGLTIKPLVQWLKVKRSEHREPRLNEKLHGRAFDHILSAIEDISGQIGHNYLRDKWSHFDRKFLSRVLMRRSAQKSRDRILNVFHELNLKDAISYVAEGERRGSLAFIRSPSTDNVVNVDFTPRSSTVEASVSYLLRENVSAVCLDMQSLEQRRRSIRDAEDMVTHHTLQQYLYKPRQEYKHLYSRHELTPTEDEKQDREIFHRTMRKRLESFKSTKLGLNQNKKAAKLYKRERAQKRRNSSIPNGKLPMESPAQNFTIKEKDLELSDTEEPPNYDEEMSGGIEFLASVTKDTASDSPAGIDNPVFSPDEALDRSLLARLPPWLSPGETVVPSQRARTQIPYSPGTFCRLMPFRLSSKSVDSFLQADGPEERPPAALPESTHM
Assay: Recovery of intracellular pH (pHi) after acidification in LAP1 cells stably expressing NHE3 (BCECF fluorescence, FLIPR)
Format: cell-based
Details: LAP1 cells stably expressing NHE3; pH recovery after acidification; range 1 is % inhibition at 10 μM; read-out: Activity range (inhibitory effect on NHE3)

IC50 [nM]	inhibition at 10 µM [%]	SMILES
1000 to 10000		O=S(=O)(c1ccc(O[C@H]2c3cc(Cl)cc(Cl)c3C[C@@H]2N2CC[C@@H](O)C2)cc1)N1CCOCC1 [Example 744, (R)-1-{trans-(1S,2S)-4,6-Dichloro-1-[4-(morpholine-4-sulfonyl)-phenoxy]-indan-2-yl}-pyrrolidin-3-ol]
1000 to 10000		CC(=O)Nc1cccc(O[C@H]2c3ccccc3CC[C@@H]2N2CCC[C@@H](N)C2)c1 (racemic) [Example 676, N-{3-[rac-trans-(1,2)-2-((R)-3-aminopiperidin-1-yl)-1,2,3,4-tetrahydronaphthalen-1-yloxy]phenyl}acetamide]
1000 to 10000		CN(C)C(=O)Cc1ccc(O[C@H]2c3ccccc3C[C@@H]2N2CCCC2)cc1 (racemic) [Example 634, N,N-dimethyl-2-[4-(rac-trans-(1,2)-2-pyrrolidin-1-ylindan-1-yloxy)phenyl]acetamide]
< 1000		CC(=O)Nc1cccc(O[C@H]2c3cc(Cl)cc(Cl)c3C[C@@H]2N2CC3CNCC3C2)c1 (mixture of isomers) [Example 689, N-{3-[rac-trans-(1,2)-4,6-dichloro-2-(hexahydropyrrolo[3,4-c]pyrrol-2-yl)indan-1-yloxy]phenyl}acetamide]
1000 to 10000		CC(=O)Nc1cccc(O[C@H]2c3cccc(F)c3C[C@@H]2N2CCCC2)c1 (racemic) [Example 652, N-[3-(rac-trans-(1,2)-4-fluoro-2-pyrrolidin-1-ylindan-1-yloxy)phenyl]acetamide]
	20 to 50	CC(=O)Nc1cccc(O[C@H]2c3ccccc3C[C@@H]2N2CCSCC2)c1 (racemic) [Example 643, N-[3-(rac-trans-(1,2)-2-thiomorpholin-4-ylindan-1-yloxy)phenyl]acetamide]
	20 to 50	Cc1noc(C)c1-c1cc(O[C@H]2c3ccccc3C[C@@H]2N2CCCC2)ccc1F [Example 489, 4-[2-fluoro-5-(trans-(1S,2S)-2-pyrrolidin-1-ylindan-1-yloxy)phenyl]-3,5-dimethylisoxazole]
1000 to 10000		NCC1CCN([C@@H]2Cc3ccccc3[C@H]2Oc2ccc(-n3cncn3)cc2)C1 (mixture of isomers) [Example 618, C-{1-[rac-trans-(1,2)-1-(4-[1,2,4]triazol-1-ylphenoxy)indan-2-yl]pyrrolidin-3-yl}methylamine]
< 1000		CC(=O)Nc1cccc(O[C@H]2c3cc(F)ccc3C[C@@H]2N2CCCC2)c1 (racemic) [Example 661, N-[3-(rac-trans-(1,2)-6-fluoro-2-pyrrolidin-1-ylindan-1-yloxy)phenyl]acetamide]
< 1000		CS(=O)(=O)c1nccn1-c1ccc(O[C@H]2c3cc(Cl)cc(F)c3C[C@@H]2NC2CCCC2)c(F)c1 [Example 754, {trans-(1S,2S)-6-Chloro-4-fluoro-1-[2-fluoro-4-(2-methanesulfonyl-imidazol-1-yl)-phenoxy]-indan-2-yl}-cyclopentyl-amine]
1000 to 10000		Cc1nc2cc(O[C@@H]3c4ccccc4C[C@H]3N3CCC(CN)C3)ccc2s1 (mixture of isomers) [Example 608, C-{1-[rac-trans-(1,2)-1-(2-methylbenzothiazol-5-yloxy)indan-2-yl]pyrrolidin-3-yl}methylamine]
1000 to 10000		COc1ccc(C)cc1O[C@@H]1c2ccccc2C[C@H]1N1CCC(CN)C1 (mixture of isomers) [Example 607, C-{1-[rac-trans-(1,2)-1-(2-methoxy-5-methylphenoxy)indan-2-yl]pyrrolidin-3-yl}methylamine]
1000 to 10000		O=c1oc2ccc(O[C@@H]3c4ccccc4C[C@H]3N3C[C@H]4CNC[C@H]4C3)cc2s1 (racemic) [Example 577, 5-[rac-trans-(1,2)-2-(hexahydropyrrolo[3,4-c]pyrrol-2-yl)indan-1-yloxy]benzo[1,3]oxathiol-2-one]
< 1000		Cc1nnc(C)n1-c1ccc(O[C@H]2c3ccccc3C[C@@H]2N2CCCC2)c(Cl)c1 (racemic) [Example 490, 4-[3-chloro-4-(rac-trans-(1,2)-2-pyrrolidin-1-ylindan-1-yloxy)phenyl]-3,5-dimethyl-4H-[1,2,4]triazole]
1000 to 10000		CS(=O)(=O)c1ccc(O[C@H]2c3ccccc3C[C@@H]2NC2CCCC2)cc1 (racemic) [Example 623, Cyclopentyl-[1-(4-methanesulfonylphenoxy)indan-2-yl]amine]

More lines, now with the values behind:

SMILES	IC50 [nM]	inhibition at 10 µM [%]
CS(=O)(=O)c1ccc(O[C@H]2c3ccccc3CC[C@@H]2N2CCC[C@@H](N)C2)cc1 (racemic) [Example 73, (R)-1-[rac-trans-(1,2)-1-(4-methanesulfonylphenoxy)-1,2,3,4-tetrahydronaphthalen-2-yl]piperidin-3-ylamine]	< 1000	
NS(=O)(=O)c1ccc(O[C@H]2c3ccccc3C[C@@H]2CN2CCCC2)cc1Cl (racemic) [Example 389, 2-chloro-4-(2-pyrrolidin-1-ylmethylindan-1-yloxy)benzenesulfonamide]	1000 to 10000	
Cc1nnc(C)n1-c1ccc(O[C@H]2c3cc(Cl)cc(Cl)c3C[C@@H]2N2CC[C@@H](O)C2)c(F)c1 [Example 130, (R)-1-{trans-(1S,2S)-4,6-dichloro-1-[4-(3,5-dimethyl-[1,2,4]triazol-4-yl)-2-fluorophenoxy]indan-2-yl}pyrrolidin-3-ol]	< 1000	
N[C@H]1CCCN([C@@H]2Cc3ccccc3[C@H]2Oc2ccc(Br)cc2-c2cc[nH]n2)C1 (racemic) [Example 204, (S)-1-{rac-trans-(1,2)-1-[4-bromo-2-(1H-pyrazol-3-yl)phenoxy]indan-2-yl}piperidin-3-ylamine]	1000 to 10000	
N[C@@H]1CCCN([C@H]2CCc3ccccc3[C@@H]2Oc2cccc(Cl)c2)C1 (racemic) [Example 55, (R)-1-[rac-trans-(1,2)-1-(3-chlorophenoxy)-1,2,3,4-tetrahydronaphthalen-2-yl]piperidin-3-ylamine]		20 to 50
NS(=O)(=O)c1ccc(O[C@@H]2c3ccccc3C[C@H]2NC2CCCC2)c(F)c1 (racemic) [Example 460, 4-(2-cyclopentylaminoindan-1-yloxy)-3-fluorobenzenesulfonamide]	< 1000	
CC(C)[C@H]1COC(=O)N1c1ccc(Cl)c(O[C@H]2c3cc(Cl)cc(F)c3C[C@@H]2N2CC[C@@H](O)C2)c1 [Example 211, (S)-3-{4-chloro-3-[(1S,2S)-6-chloro-4-fluoro-2((R)-3-hydroxypyrrolidin-1-yl)indan-1-yloxy]phenyl}-4-isopropyloxazolidin-2-one]		20 to 50
CS(=O)(=O)c1ccccc1O[C@H]1c2ccccc2CC[C@@H]1N1CCC[C@H](N)C1 (racemic) [Example 156, (S)-1-[rac-trans-(1,2)-1-(2-methanesulfonylphenoxy)-1,2,3,4-tetrahydronaphthalen-2-yl]piperidin-3-ylamine]		20 to 50
CS(=O)(=O)c1ccc(OC2c3ccccc3CC2N2CCC[C@@H](N)C2)c(Cl)c1 (mixture of isomers) [Example 37, (R)-1-[rac-trans-(1,2)-1-(2-chloro-4-methanesulfonylphenoxy)indan-2-yl]piperidin-3-ylamine]	< 1000	
N[C@@H]1CCCN([C@H]2CCc3ccccc3[C@@H]2Oc2ccc(Cl)cc2)C1 (racemic) [Example 66, (R)-1-[rac-trans-(1,2)-1-(4-chlorophenoxy)-1,2,3,4-tetrahydronaphthalen-2-yl]piperidin-3-ylamine]		20 to 50
N[C@H]1CCCN([C@H]2CCc3ccccc3[C@@H]2Oc2cccc(F)c2)C1 (racemic) [Example 168, (S)-1-[rac-trans-(1,2)-1-(3-fluorophenoxy)-1,2,3,4-tetrahydronaphthalen-2-yl]piperidin-3-ylamine]		20 to 50
N[C@H]1CCCN([C@H]2CCc3ccccc3[C@@H]2Oc2cnc3ccccc3c2)C1 (racemic) [Example 192, (S)-1-[rac-trans-(1,2)-1-(quinolin-3-yloxy)-1,2,3,4-tetrahydronaphthalen-2-yl]piperidin-3-ylamine]		20 to 50
N[C@H]1CCCN([C@H]2CCc3ccccc3[C@@H]2Oc2ccc(F)c3cccnc23)C1 (racemic) [Example 188, (S)-1-[rac-trans-(1,2)-1-(5-fluoroquinolin-8-yloxy)-1,2,3,4-tetrahydronaphthalen-2-yl]piperidin-3-ylamine]	1000 to 10000	
CN(C)S(=O)(=O)c1cc(Cl)c(O[C@H]2c3ccccc3C[C@@H]2N2CCCC2)c(Cl)c1 (racemic) [Example 403, 3,5-dichloro-N,N-dimethyl-4-(rac-trans-(1,2)-2-pyrrolidin-1-ylindan-1-yloxy)benzenesulfonamide]	1000 to 10000	
c1ccc2c(c1)C[C@@H](N1C[C@H]3CNC[C@H]3C1)[C@@H]2Oc1ccc(N2CCNCC2)cc1 (racemic) [Example 17, 2-[rac-trans-(1,2)-1-(4-piperazin-1-ylphenoxy)indan-2-yl]octahydropyrrolo[3,4-c]pyrrole]	1000 to 10000	
O=C1CCC(=O)N1c1cccc(O[C@H]2c3ccccc3C[C@@H]2N2CCCC2)c1 (racemic) [Example 256, 1-[3-(rac-trans-(1,2)-2-pyrrolidin-1-ylindan-1-yloxy)phenyl]pyrrolidine-2,5-dione]	1000 to 10000	
